Data as given in paper PMC2194712, “Structure of Arabidopsis thaliana 5-methylthioribose kinase reveals a more occluded active site than its bacterial homolog” (BMC Structural Biology, 2007).

Assays:
A. thaliana MTR kinase = target: T1, A. thaliana MTR kinase (Arabidopsis thaliana, UniProt Q9C6D2); assay: X-ray crystallography, […] Å, co-crystallization; assay type: binding; details: crystal soaked at pH 6.5
T1 construct: gene MTK; full length, 420 residues; homodimer
T1 sequence (Q9C6D2 1-420): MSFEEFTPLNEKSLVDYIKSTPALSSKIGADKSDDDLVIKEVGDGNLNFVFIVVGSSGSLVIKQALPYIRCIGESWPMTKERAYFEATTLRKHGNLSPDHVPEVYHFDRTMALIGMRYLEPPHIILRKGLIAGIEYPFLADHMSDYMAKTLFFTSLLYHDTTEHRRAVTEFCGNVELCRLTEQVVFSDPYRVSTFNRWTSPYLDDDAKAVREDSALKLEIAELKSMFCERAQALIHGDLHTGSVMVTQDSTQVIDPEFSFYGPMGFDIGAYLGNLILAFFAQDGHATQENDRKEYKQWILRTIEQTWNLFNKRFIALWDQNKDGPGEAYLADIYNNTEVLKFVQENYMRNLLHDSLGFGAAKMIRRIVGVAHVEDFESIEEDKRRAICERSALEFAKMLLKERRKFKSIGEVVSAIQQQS

[1] = target: the molecule itself; assay: SEC; size exclusion chromatography of A. thaliana MTR kinase, data not shown; conditions not given

For `Nc1ncnc2c1ncn2[C@@H]1O[C@H](COP(=O)(O)OP(=O)(O)O)[C@@H](O)[C@H]1O` [ADP], the “X-ray crystallography, 1.9 Å, co-crystallization” value (A. thaliana MTR kinase; nucleotide site, from ATPγS hydrolysed during co-crystallization, two Mg(II), MTR bound) was “coordinates of the A. thaliana MTR kinase in complex with ADP and MTR”.

With `CSC[C@H]1OC(O)[C@H](O)[C@@H]1O` (stereo partly drawn) [MTR] the “X-ray crystallography, 1.9 Å, co-crystallization” value (A. thaliana MTR kinase; active site, co-crystallized with ATPγS and MTR, Mg(II) and ADP bound, alpha anomer) was “coordinates of the A. thaliana MTR kinase in complex with ADP and MTR”.

B1: Arabidopsis thaliana 5-methylthioribose kinase (enzyme, UniProt Q9C6D2 1-420, looked up)
chain: T1 sequence (Q9C6D2 1-420)
notes: 5-methylthioribose (MTR) kinase of Arabidopsis thaliana, 420 residues; residues 1 and 420 are named as part of the crystallised protein (not modelled); also called A. thaliana MTR kinase; MTR kinase
For B1, the “stoichiometry N” value [1] was 2.
